Results reported in patent US20260374739A1, “SMALL MOLECULAR WEIGHT CHEMICAL COMPOUND TO ANTAGONIZE EPH-EPHRIN TETRAMERIZATION AND INHIBIT BIDIRECTIONAL SIGNALING” (THE BOARD OF REGENTS OF THE UNIVERSITY OF TEXAS SYSTEM, priority 2022, published 2026).
Several values for one entry are separate records, joined by “and”; a condition that tells them apart may be missing. Identical values can stand only once. Like-named read-outs stand apart in the source and are kept apart here.

Assays:
EphrinB2-EphB2 [1] = molecular target: T1, EphrinB2-EphB2 (Homo sapiens, UniProt P29323); experiment: Octet tetramerization inhibition, immobilized human EphrinB2 binding to 50 nM soluble human EphB2
T1 construct: soluble human EphB1-His, EphB2-His, and EphB4-His ectodomains; commercially available human EphrinB1-Fc (EB1), EphrinB2-Fc (EB2), and EphrinB3-Fc (EB3) ectodomain proteins; purchased
T1 sequence (P29323 19-543 limits assumed): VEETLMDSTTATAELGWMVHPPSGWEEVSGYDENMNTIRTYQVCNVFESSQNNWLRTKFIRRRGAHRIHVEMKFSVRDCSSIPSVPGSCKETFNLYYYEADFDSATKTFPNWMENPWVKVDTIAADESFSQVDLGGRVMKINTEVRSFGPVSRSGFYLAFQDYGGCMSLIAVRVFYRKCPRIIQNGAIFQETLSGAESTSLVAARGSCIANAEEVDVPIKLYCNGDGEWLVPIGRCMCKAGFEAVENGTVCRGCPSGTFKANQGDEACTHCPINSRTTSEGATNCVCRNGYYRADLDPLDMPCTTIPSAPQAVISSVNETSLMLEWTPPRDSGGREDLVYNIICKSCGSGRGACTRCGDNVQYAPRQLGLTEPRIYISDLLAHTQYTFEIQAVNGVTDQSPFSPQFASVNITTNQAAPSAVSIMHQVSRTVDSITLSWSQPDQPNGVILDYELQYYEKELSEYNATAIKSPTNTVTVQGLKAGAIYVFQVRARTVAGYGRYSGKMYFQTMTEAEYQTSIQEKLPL

EphrinB2-EphB2 [2] = molecular target: T1, EphrinB2-EphB2; experiment: Octet 80 sec association/500 sec dissociation, immobilized human EphrinB2-Fc binding to soluble human EphB2-His; settings: for inhibition of EphrinB2-EphB interactions: 3.2 μM, EphB1, EphB2 and EphB4; for inhibition at 3.2 µM / % Inhibition: Association + Dissociation (160 sec) / % Inhibition: Association ONLY (80 sec) / inhibition / IC50: EphB2; for inhibition at 3.2 µM / % Inhibition: Association + Dissociation (160 sec) / % Inhibition: Association ONLY (80 sec): 25 nM EphB2, 3.2 μM compound, A20-I as max control, 0* = less than 0, no inhibition; for EphB2 Inhibition Percent, Inhibition of Association ONLY: at 3.2 μM and 80 seconds; for EphB2 Inhibition Percent, Inhibition of Association ONLY / EphB2 Inhibition Percent, Inhibition of Association-Dissociation: immobilized human EphrinB2, 25 nM soluble human EphB2; for EphB2 Inhibition Percent, Inhibition of Association-Dissociation: at 3.2 μM and 580 seconds
Procedure, shortened: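 EphrinB2-Fc captured on AHC biosensors, then soluble His-tagged EphB ectodomain (25 nM for % inhibition runs) associated 80 s and dissociated 500 s in PBS, 0.05% Tween-20, 1% DMSO ± compound. Compounds tested at 0.1–3.2 μM with a 10 μM max standard; IC50 from AUC of full traces or at 75 s and 135 s.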

[3] = Absolute AUC/IC50, Table A, EphrinB2-EphB2
[4] = Absolute Association IC50 (300 sec), Table A, EphrinB2-EphB2
[5] = Absolute Dissociation IC50 (450 sec), Table A, EphrinB2-EphB2
[6] = Relative AUC/IC50, Table A, EphrinB2-EphB2, compound 7: association only
[7] = Relative Association IC50 (300 sec), Table A, EphrinB2-EphB2
[8] = Relative Dissociation IC50 (450 sec), Table A, EphrinB2-EphB2
[9] = tetramerization inhibitor IC50 (relative), association step, surmountable tetramer
[10] = read-out: % Inhibition: Association + Dissociation (160 sec)
[11] = read-out: % Inhibition: Association ONLY (80 sec)

Row | SMILES | IC50 (EphrinB2-EphB2 [1]; [3]) | IC50 (EphrinB2-EphB2 [1]; [4]) | IC50 (EphrinB2-EphB2 [1]; [5]) | IC50 (EphrinB2-EphB2 [1]; [6]) [nM] | IC50 (EphrinB2-EphB2 [1]; [7]) | IC50 (EphrinB2-EphB2 [1]; [8]) | IC50 (EphrinB2-EphB2 [1]; [9]) [nM] | inhibition at 3.2 µM (EphrinB2-EphB2 [2]; [10]) [%] | inhibition at 3.2 µM (EphrinB2-EphB2 [2]; [11]) [%] | EphB2 Inhibition Percent, Inhibition of Association ONLY (EphrinB2-EphB2 [2]) | EphB2 Inhibition Percent, Inhibition of Association-Dissociation (EphrinB2-EphB2 [2]) | further results
1 | Oc1ccc(CN2CCOCC2)c2cccnc12 [Compound 1, 5-(morpholinomethyl)quinolin-8-ol] | > 1600 nM | > 1600 nM | > 1600 nM | > 1600 | > 1600 nM | > 1600 nM | > 1600 |  |  |  |  | tetramerization inhibitor activity (EphrinB2-EphB2 [1]): only weak ability to inhibit formation of the EB2-EphB2 tetramer; inhibition of EphrinB2-EphB interactions (EphrinB2-EphB2 [2]): generally less active towards all three interactions
2 | Oc1c(Cl)cc(CN2CCOCC2)c2cccnc12 [Compound 3, 7-chloro-5-(morpholinomethyl)quinolin-8-ol] | 2400 nM | 2340 nM | 1700 nM |  | 1120 nM | 1050 nM | ~500 | 78.1 | 64.1 |  |  | inhibition of EphrinB2-EphB interactions (EphrinB2-EphB2 [2]): activity similar to A20-I max control
3 | Oc1c(Cl)cc(CN2CCOCC2)c2cccnc12 [Compound 4, 4-((7-chloro-8-hydroxyquinolin-1-ium-5-yl)methyl)morpholin-4-ium chloride] | 930 nM | 1260 nM | 760 nM | 510 | 530 nM | 550 nM |  |  |  | 64.1% | 78.1% | 
4 | Oc1c(Br)cc(CN2CCOCC2)c2cccnc12 [Compound 5, 7-bromo-5-(morpholinomethyl)quinolin-8-ol] |  |  |  |  |  |  | ~500 | 75.7 | 55.4 |  |  | IC50 (EphrinB2-EphB2 [1]; absolute IC50, association, dissociation and AUC, A20 salt): ~1000 nM and 1000 nM; IC50 (EphrinB2-EphB2 [1]; effective/relative IC50, A20 salt): < 1000 nM; association slope (EphrinB2-EphB2 [1]; in presence of A20, role: inhibitor, 20° without): 10 °; IC (maximum) (EphrinB2-EphB2 [1]; read-out: concentration producing maximum inhibition): 1 µM; inhibition at 1 µM (EphrinB2-EphB2 [1]; read-out: reduction of association response): ~50%
5 | Oc1c(Br)cc(CN2CCOCC2)c2cccnc12 [Compound 6, 4-((7-bromo-8-hydroxyquinolin-1-ium-5-yl)methyl)morpholin-4-ium chloride] |  | 930 nM | 690 nM | 480 | 490 nM | 530 nM |  |  |  | 61.0% | 76.8% | 
6 | Oc1c(I)cc(CN2CCOCC2)c2cccnc12 [Compound 7, 7-iodo-5-(morpholinomethyl)quinolin-8-ol] | > 1600 nM | 1500 nM | > 1600 nM | 440 | 890 nM | 1070 nM | ~600 | 75.3 | 59.6 |  |  | tetramerization inhibitor activity (EphrinB2-EphB2 [1]): stronger tetramerization inhibitor compared to A20; % Inhibition: Association + Dissociation (160 sec) (EphrinB2-EphB2 [2]): 80.6% and 77.6% and 74.3%; % Inhibition: Association ONLY (80 sec) (EphrinB2-EphB2 [2]): 66.1% and 61.2% and 56.7%; inhibition (EphrinB2-EphB2 [2]; 10 μM 2×HCl salt, read-out: % Inhibited (AUC), Association): 61.8%; IC50 (EphrinB2-EphB2 [2]; Association (75″), read-out: Absolute IC50): 1660 nM; IC50 (EphrinB2-EphB2 [2]; Association (75″), read-out: Relative IC50): 1200 nM; IC50 (EphrinB2-EphB2 [2]; Association (AUC), read-out: Absolute IC50): 2240 nM; IC50 (EphrinB2-EphB2 [2]; Association (AUC), read-out: Relative IC50): 1150 nM; IC50 (EphrinB2-EphB2 [2]; Dissociation (135″), read-out: Absolute IC50): 410 nM; IC50 (EphrinB2-EphB2 [2]; Dissociation (135″), read-out: Relative IC50): 340 nM; IC50 (EphrinB2-EphB2 [2]; Full AUC, read-out: Absolute IC50): 240 nM; IC50 (EphrinB2-EphB2 [2]; Full AUC, read-out: Relative IC50): 190 nM; inhibition (EphrinB2-EphB2 [2]; first 160 sec, 10 μM 2×HCl salt, read-out: % Inhibited (AUC), Association + Dissociation): 76.5%; inhibition (EphrinB2-EphB2 [2]; highest dose, typically 3.2 μM, read-out: Association (% Inhibited (AUC))): 56.4%; inhibition (EphrinB2-EphB2 [2]; highest dose, typically 3.2 μM, read-out: Association + Dissociation (% Inhibited (AUC))): 74.7%
7 | Oc1c(I)cc(CN2CCOCC2)c2cccnc12 [Compound 8, 4-((8-hydroxy-7-iodoquinolin-1-ium-5-yl)methyl)morpholin-4-ium chloride] | 1320 nM and 1000 nM and 1480 nM | 1380 nM and 1350 nM and > 3200 nM | 980 nM and 1260 nM and 850 nM | 630 | 630 nM and 850 nM | 660 nM and 930 nM |  |  |  |  | 73.6% | 
8 | O=[N+]([O-])c1cc(CN2CCOCC2)c2cccnc2c1O [Compound 9, 5-(morpholinomethyl)-7-nitroquinolin-8-ol] | > 3200 nM | > 3200 nM | > 3200 nM | > 3200 | > 3200 nM | > 3200 nM | > 3000 |  |  |  | 58.0% (2×) and 38.9% | tetramerization inhibitor activity (EphrinB2-EphB2 [1]): weak, essentially inactive; % Inhibition: Association + Dissociation (160 sec) (EphrinB2-EphB2 [2]; listed as A19-NO2 (A)): 58.0% and 38.9%; inhibition of EphB2-EphrinB2 binding (EphrinB2-EphB2 [2]; association step, general): 40%
9 | O=[N+]([O-])c1cc(CN2CCOCC2)c2cccnc2c1O [Compound 10, 4-((8-hydroxy-7-nitroquinolin-1-ium-5-yl)methyl)morpholin-4-ium chloride] | > 1600 nM | > 1600 nM | > 1600 nM | > 1600 | > 1600 nM | > 1600 nM |  |  |  | 9.2% and 11.6% and 16.5% | 24.5% and 24.2% and 21.0% | % Inhibition: Association + Dissociation (160 sec) (EphrinB2-EphB2 [2]; listed as A19-NO2 (B)): 24.2%; % Inhibition: Association ONLY (80 sec) (EphrinB2-EphB2 [2]; listed as A19-NO2 (B)): 11.6%
10 | OCc1ccc2c(CN3CCOCC3)cc(Br)c(O)c2n1 [Compound 13, 7-bromo-2-(hydroxymethyl)-5-(morpholinomethyl)quinolin-8-ol] | > 3200 nM | > 3200 nM | 2510 nM | 1450 | 1410 nM | 1540 nM | ~1600 | 68.4 | 50.5 |  |  | 
11 | Oc1ccc(CN2CCCCC2)c2cccnc12 [Compound 68, 5-(piperidin-1-ylmethyl)quinolin-8-ol, reference compound] |  |  |  |  |  |  |  |  |  | 54.9% | 72.9% | 
12 | Oc1c(CN2CCCCC2)cc(Cl)c2cccnc12 [Compound 76, 5-chloro-7-(piperidin-1-ylmethyl)quinolin-8-ol, reference compound] |  |  |  |  |  |  |  |  |  | 59.7% and 46.7% | 77.8% and 71.3% | 
13 | COCc1cc(CN2CCN(C)CC2)c(O)c2ncccc12 [Compound 77, 5-(methoxymethyl)-7-((4-methylpiperazin-1-yl)methyl)quinolin-8-ol, reference compound] |  |  |  |  |  |  |  |  |  | 5.4% | 35.1% | 
